In ChEMBL document CHEMBL1132208, “Molecular hashkeys: a novel method for molecular characterization and its application for predicting important pharmaceutical properties of molecules” (J Med Chem, 1999):

Tested on: Homo sapiens
Test: Percent of the drug absorbed after administration to humans was determined
Format: ADME, organism-based
Details: in vivo

SMILES	Absorption [%]
NC[C@H]1CC[C@H](C(=O)O)CC1 [TRANEXAMIC ACID]	55
C=CCc1ccccc1OCC(O)CNC(C)C (stereo not drawn) [ALPRENOLOL]	96
Cc1cc(=O)n(-c2ccccc2)n1C [ANTIPYRINE]	97
O=C(O)c1cc(/N=N/c2ccc(S(=O)(=O)Nc3ccccn3)cc2)ccc1O [SULFASALAZINE]	12
OC[C@@H](O)[C@@H](O)[C@H](O)[C@H](O)CO [MANNITOL]	26
O=C(O)c1cc(/N=N/c2ccc(O)c(C(=O)O)c2)ccc1O [OLSALAZINE]	2.3
OC[C@H]1O[C@@H](O[C@@H]2[C@@H](CO)O[C@](O)(CO)[C@H]2O)[C@H](O)[C@@H](O)[C@H]1O [LACTULOSE]	0.6
O=C(O)P(=O)(O)O [FOSCARNET]	17
Cc1ccccc1N1C(=O)c2cc(S(N)(=O)=O)c(Cl)cc2NC1C (stereo not drawn) [METOLAZONE]	64
OC[C@H]1O[C@H](OC[C@H]2O[C@H](O[C@]3(CO)O[C@H](CO)[C@@H](O)[C@@H]3O)[C@H](O)[C@@H](O)[C@@H]2O)[C@H](O)[C@@H](O)[C@H]1O [RAFFINOSE]	0.3
CC(C)NCC(O)COc1cccc2[nH]ccc12 (stereo not drawn) [PINDOLOL]	92
C=CCOc1ccccc1OCC(O)CNC(C)C (stereo not drawn) [OXPRENOLOL]	97
CCN1CCCC1CNC(=O)c1cc(S(N)(=O)=O)ccc1OC (stereo not drawn) [SULPIRIDE]	36
